Several values for one entry are separate records, joined by “and”; a condition that tells them apart may be missing. Equal entries are not always repeated.
Columns and labels:
CAL-148 [1] = assay: normalised viability (% of control), CellTiter-Blue; higher = more viable cells (about 100 = DMSO control); details: 1000 nM; incubation time: 72 h
Experimental: (§1)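 DSRT, CellTiter-Blue viability, 72 h incubation. Signal is normalised to DMSO and benzethonium chloride controls. Value is the normalised response at dose 7.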

CAL-51 [2] = assay: as above; details: 1000 nM; incubation time: 72 h
Experimental: as §1

CAL-85-1 [3] = assay: as above; details: 1000 nM; incubation time: 72 h
Experimental: as §1

DU-4475 [4] = assay: as above; details: 1000 nM; incubation time: 72 h
Experimental: as §1

HDQ-P1 [5] = assay: as above; details: 1000 nM; incubation time: 72 h
Experimental: as §1

MDA-MB-453 = assay: as above; details: 1000 nM; incubation time: 72 h
Experimental: as §1

BT-474 [6] = assay: normalised viability (% of control), CellTiter-Blue; higher = more viable cells (100 = DMSO, 0 = benzethonium chloride kill control); details: 1 nM; incubation time: 72 h
Procedure, shortened: (§2)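 Each entry is normalised viability at a single listed concentration within a series. It comes from breast cancer cell lines incubated 72 h with compound in 384-well plates, then measured with CellTiter-Blue fluorescence at 560/590 nm. Every plate was normalised between vehicle (100) and a positive kill control (0).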

CAL-51 [7] = assay: as above; details: 1 nM; incubation time: 72 h
Procedure, shortened: as §2

HCC1599 [8] = assay: as above; details: 1 nM; incubation time: 72 h
Procedure, shortened: as §2

BT-474 [9] = assay: drug sensitivity score (DSS), CellTox Green (DSS (AUC-based score)); higher = stronger drug effect (viability inhibition or cytotoxicity); extreme values may be limits of the assay; details: incubation time: 72 h
Procedure, shortened: (§3)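 A drug sensitivity score was derived from the area under each fitted dose-response curve. Breast cancer cells (20 µl suspension) were seeded onto compound in 384-well plates, using 5 concentrations 10-fold apart over a compound-specific 10,000-fold range, and incubated 72 h. Readouts were CellTox Green fluorescence and then CellTiter-Glo luminescence, with every plate normalised to 0.1 % DMSO and a positive kill control.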

BT-549 = assay: as above; details: incubation time: 72 h
Procedure, shortened: as §3

CAL-120 = assay: as above; details: incubation time: 72 h
Procedure, shortened: as §3

CAL-148 [10] = assay: as above; details: incubation time: 72 h
Procedure, shortened: as §3

CAL-51 [11] = assay: as above; details: incubation time: 72 h
Procedure, shortened: as §3

CAL-85-1 [12] = assay: as above; details: incubation time: 72 h
Procedure, shortened: as §3

DU-4475 [13] = assay: as above; details: incubation time: 72 h
Procedure, shortened: as §3

HCC1143 = assay: as above; details: incubation time: 72 h
Procedure, shortened: as §3

HCC1599 [14] = assay: as above; details: incubation time: 72 h
Procedure, shortened: as §3

HCC1937 = assay: as above; details: incubation time: 72 h
Procedure, shortened: as §3

HDQ-P1 [15] = assay: as above; details: incubation time: 72 h
Procedure, shortened: as §3

Hs578T = assay: as above; details: incubation time: 72 h
Procedure, shortened: as §3

MCF-10A = assay: as above; details: incubation time: 72 h
Procedure, shortened: as §3

MDA-MB-231 = assay: as above; details: incubation time: 72 h
Procedure, shortened: as §3

MDA-MB-436 = assay: as above; details: incubation time: 72 h
Procedure, shortened: as §3

MDA-MB-468 = assay: as above; details: incubation time: 72 h
Procedure, shortened: as §3

MFM-223 = assay: as above; details: incubation time: 72 h
Procedure, shortened: as §3

Compound | normalised viability (CAL-148 [1]) | normalised viability (CAL-51 [2]) | normalised viability (CAL-85-1 [3]) | normalised viability (DU-4475 [4]) | normalised viability (HDQ-P1 [5]) | normalised viability (MDA-MB-453) | normalised viability (BT-474 [6]) | normalised viability (CAL-51 [7]) | normalised viability (HCC1599 [8]) | drug sensitivity score (BT-474 [9]) | drug sensitivity score (BT-549) | drug sensitivity score (CAL-120) | drug sensitivity score (CAL-148 [10]) | drug sensitivity score (CAL-51 [11]) | drug sensitivity score (CAL-85-1 [12]) | drug sensitivity score (DU-4475 [13]) | drug sensitivity score (HCC1143) | drug sensitivity score (HCC1599 [14]) | drug sensitivity score (HCC1937) | drug sensitivity score (HDQ-P1 [15]) | drug sensitivity score (Hs578T) | drug sensitivity score (MCF-10A) | drug sensitivity score (MDA-MB-231) | drug sensitivity score (MDA-MB-436) | drug sensitivity score (MDA-MB-468) | drug sensitivity score (MFM-223)
Nc1nc2[nH]cc(CCc3ccc(C(=O)N[C@@H](CCC(=O)O)C(=O)O)cc3)c2c(=O)[nH]1 [Pemetrexed] | 115% | 102% | 72.3% | 93.9% | 94.8% | 104% | 106% | 109% | 92.6% | 0 | 0 | 0 | 0 | 0 | 0 | 0 | 0 | 0 | 0 | 0 | 0.581 | 0.385 | 2.43 | 0 | 1.29 | 0
Oc1ncc(N(CCCl)CCCl)c(O)n1 [Uracil mustard] | 111% | 89.6% | 93.8% | 96.2% | 117% | 101% | 86.6% | 90.7% | 94.5% | 0 | 0 | 0 | 0 | 0 | 0 | 0 | 0 | 0 | 0 | 0 | 0 | 0 | 0 | 0 | 0 | 0
Nc1ncn([C@H]2C[C@H](O)[C@@H](CO)O2)c(=O)n1 [Decitabine] | 75.2% and 75% | 107% and 98.7% | 78.2% and 89.6% | 76.6% and 89.9% | 87.1% and 88.9% | 96% and 103% | 98.4% and 79.8% | 113% and 104% | 107% and 109% | 0 | 0 | 0 | 0 | 7.63 | 2.72 | 0 | 0 | 0 | 0 | 0 | 0 | 0 | 0 | 0 | 0.872 | 0
O=C(O)C1(C(=O)O)CCC1.[NH2-].[NH2-].[Pt+2] [Carboplatin] | 103% | 99.9% | 81.5% | 97.3% | 97.1% | 99.3% | 109% | 99.2% | 91.3% | 0 | 1.73 | 0 | 0 | 0 | 0 | 0 | 0 | 0 | 0 | 0 | 0 | 0 | 0 | 0 | 0 | 0
C[C@H]1C[C@@H]2[C@H]([C@@H](O)C[C@@]3(C)[C@H]2CC[C@]3(O)C(=O)CO)[C@@]2(C)C=CC(=O)C=C12 [Methylprednisolone] | 108% | 102% | 97% | 104% | 109% | 69.3% | 108% | 103% | 114% | 0 | 0 | 0 | 0 | 0 | 0 | 0 | 0 | 0 | 0 | 0 | 0 | 0 | 0 | 0 | 0 | 0
CC[C@H](C)C(=O)O[C@H]1C[C@H](O)C=C2C=C[C@H](C)[C@H](CC[C@@H](O)C[C@@H](O)CC(=O)O)[C@H]21 [Pravastatin] | – | – | – | – | – | – | – | – | – | 0 | 0.618 | 0 | 0 | 5.33 | 0 | 0 | 0 | 0 | 0 | 0 | 0 | 2.17 | 4.52 | 32.8 | 2.44 | 0
CC[C@H](Nc1ncnc2[nH]cnc12)c1nc2cccc(F)c2c(=O)n1-c1ccccc1 [GS-1101] | – | – | – | – | – | – | – | – | – | 0 | 0 | 0 | 0 | 0 | 0 | 0 | 0 | 0 | 0 | 0 | 0 | 0 | 4.13 | 0 | 3.82 | 0
Nc1nc(F)nc2c1ncn2[C@@H]1O[C@H](CO)[C@@H](O)[C@@H]1O [Fludarabine] | 93.8% | 102% | 93.8% | 99.5% | 98.4% | 108% | 67.6% | 103% | 92.6% | 0 | 0 | 0 | 0 | 0 | 0 | 0 | 0 | 0 | 0 | 0 | 0 | 0 | 0 | 0 | 0 | –
COc1cc([C@@H]2c3cc4c(cc3[C@@H](O[C@@H]3O[C@@H]5CO[C@@H](c6cccs6)O[C@H]5[C@H](O)[C@H]3O)[C@H]3COC(=O)[C@H]23)OCO4)cc(OC)c1O [Teniposide] | 30.3% | 24.4% | 64.6% | 5.16% | 82.3% | 73.1% | 87.9% | 105% | 98.3% | 0 | 0 | 4.54 | 25.1 | 11.8 | 7.07 | 4.49 | 0 | 3.84 | 8.06 | 7.08 | 2.53 | – | 10.8 | 0 | 6.45 | 6.4
O=C(/C=C/c1cccnc1)NCCCCC1CCN(C(=O)c2ccccc2)CC1 [Daporinad] | – | – | – | – | – | – | – | – | – | 0 | 0 | 0 | 0 | 0 | 0 | 0 | 0 | 0 | 10.4 | 0 | 0 | 0 | 0 | 0 | 0.89 | 0
CNC(=O)c1cc(Oc2ccc(NC(=O)Nc3cc(C(C)(C)C)nn3-c3ccc4ncccc4c3)c(F)c2)ccn1 [Rebastinib] | – | – | – | – | – | – | – | – | – | 0 | 0 | 0 | 0 | 0 | 2.09 | 0 | 0 | 0 | 0 | 4.01 | 0 | 0 | 0 | 0 | 0 | 0
O=C(O)C(=O)O.[NH-][C@@H]1CCCC[C@H]1[NH-].[Pt+2] [Oxaliplatin] | 125% | 91.1% | 93.2% | 104% | 97.9% | 109% | 103% | 93.3% | 93% | 0 | 0 | 0 | – | 0 | 0 | 0 | 0 | 0 | 0 | 1 | 0 | 1.93 | 0 | 0 | 0 | 0
COc1cc2nccc(Oc3ccc(NC(=O)Nc4cc(C)on4)c(Cl)c3)c2cc1OC [Tivozanib] | 98.7% | 90.3% | 98.3% | 124% | 72.5% | 91.7% | 95% | 101% | 115% | 0 | 0 | 0 | 0 | – | 0 | 0 | 0 | 0 | 0 | 0 | 3.86 | 0 | 0 | 0 | 0 | 0
C=CCc1cccc(/C=N/NC(=O)CN2CCN(Cc3ccccc3)CC2)c1O [PAC-1] | – | – | – | – | – | – | – | – | – | 1 | 8.49 | 0 | 0 | 4.72 | 0 | 0 | 0 | 0 | 0 | 0 | 0 | 0 | 0 | 0 | 0 | 0
C=CC(=O)N1CCC[C@@H](n2nc(-c3ccc(Oc4ccccc4)cc3)c3c(N)ncnc32)C1 [Ibrutinib] | – | – | – | – | – | – | – | – | – | 2.25 | 0 | 0 | 0 | 0.377 | 4.71 | 0 | 0 | 0 | 0 | 0.282 | 0 | 0 | 0 | 0 | 0 | 0

From the supplement of paper PMC4862054
